# From PubChem BioAssay (NCI)
# Where “and” joins values, the source holds several entries; their conditions need not be identical. Equal values may be shown once.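 Step 1: Grow cells in 96-well plates. Step 2: Expose to compound for 48 hours at 5 concentrations. Step 3: Interpolate endpoints linearly; if unreached, use highest concentration. GI50 is the concentration that inhibits growth by half. Definition used: TGI = concentration required for complete inhibition of growth.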 Where a SMILES comes first, the peptide text is derived from it. [ ]: non-standard residue; d: D form. The star is where a group is joined. ξ: configuration not given here. dIva = CC[C@@](C)(N)C(=O)O; Aib = CC(C)(N)C(=O)O; ξP = O=C(O)C1CCCN1; βAla = NCCC(=O)O; X5 = OCN*
# What was measured:
# Assay in all cases: growth of human tumour cells (NCI), 48 h
# HCT-116 colon = system: HCT-116 colon
# CAKI-1 renal = system: CAKI-1 renal
# SK-MEL-28 melanoma = system: SK-MEL-28 melanoma
# NCI-H226 lung = system: NCI-H226 lung
# K-562 leukemia = system: K-562 leukemia
# 786-0 renal = system: 786-0 renal
# UACC-257 melanoma = system: UACC-257 melanoma
# HL-60(TB) leukemia = system: HL-60(TB) leukemia
# SK-OV-3 ovarian = system: SK-OV-3 ovarian
# CCRF-CEM leukemia = system: CCRF-CEM leukemia
Structure (SMILES),TGI (HCT-116 colon),TGI (CAKI-1 renal),TGI (SK-MEL-28 melanoma),TGI (NCI-H226 lung),TGI (K-562 leukemia) [µM],TGI (786-0 renal),TGI (UACC-257 melanoma),TGI (HL-60(TB) leukemia),TGI (SK-OV-3 ovarian) [µM],TGI (CCRF-CEM leukemia) [µM],GI50 (HCT-116 colon) [nM],GI50 (CAKI-1 renal),GI50 (SK-MEL-28 melanoma) [µM],GI50 (NCI-H226 lung) [µM],GI50 (K-562 leukemia) [nM],GI50 (786-0 renal) [µM],GI50 (UACC-257 melanoma) [µM],GI50 (HL-60(TB) leukemia) [nM],GI50 (SK-OV-3 ovarian) [µM],GI50 (CCRF-CEM leukemia) [nM]
COc1ccc([Se]c2ccc(OC)cc2)cc1,> 100 µM,> 100 µM,> 100 µM,93.5 µM,> 100,> 100 µM,> 100 µM,> 100 µM,> 100,> 100,,,,,,,,,,
COc1cc(OC)c2c(c1Cl)O[C@]1(C2=O)C(OCc2ccccc2)=CC(=O)C[C@H]1C,> 100 µM,60.6 µM,24.8 µM,30.2 µM,29.1,79.7 µM,49.2 µM,3.52 µM,7.75,12.2,460,0.656 µM,1.85,4.18,538,0.944,1.76,531,1.29,532
COC(=O)C(=O)C(C(=O)C(=O)Nc1nc(=S)[nH][nH]1)c1nc2ccc([N+](=O)[O-])cc2[nH]c1=O (configuration not stated),> 100 µM,> 100 µM,> 100 µM,> 100 µM,> 100,> 100 µM,> 100 µM,> 100 µM,> 100,> 100,,,,,,,,,,
NC(=S)N=Nc1c(O)[nH]c2ccccc12,297 µM,251 µM,> 1000 µM,307 µM,> 1000,296 µM,> 1000 µM,> 1000 µM,431,> 1000,152000,32 µM and 73.4 µM,713,169,,142,804,275000,209,253000
CCC(=O)OCN1C(=O)C=CC1=O,25.8 µM and 29.9 µM,25.3 µM and 9.35 µM,33.3 µM and 33.4 µM,30.1 µM and > 63.3 µM,,41.4 µM and 11.3 µM,29.4 µM and 22.2 µM,70.4 µM and 8.36 µM,> 100,1.84,11800,10.5 µM,,15.2,4190,21.7,15.7,17300,> 100,
COc1cc2c3c(n(CCCN4CCN(CCO)CC4)c(=O)c2cc1OC)-c1cc2c(cc1C3=O)OCO2,7.79 µM,42.2 µM,32.1 µM,28.4 µM,29.4,18 µM,> 81.4 µM,> 41.7 µM,> 78.9,1.8,1140,6.53 µM,17.5,7.49,5950,4.97,30.6,6350,21.1,203
COc1ccc(-c2cc(=O)c3cccnc3[nH]2)cc1,80.3 µM,> 100 µM,> 100 µM,> 100 µM,88.6,> 100 µM,> 100 µM,57.1 µM,> 100,85.6,17600,,,,,56.5,,13000,,
CCCC(CCC)C(=O)O,> 20000 µM,> 20000 µM,> 100 µM,> 20000 µM,> 20000,> 20000 µM,> 20000 µM,> 20000 µM,> 20000,> 20000,> 100000,> 100 µM,,> 20000,> 100000,> 20000,> 100,> 100000,> 20000,> 100000
NC(N)=N/N=C/c1ccc(Br)cc1,15.8 µM,15.2 µM,18.8 µM,17.4 µM,> 100,17.7 µM,29.1 µM,> 100 µM,30.5,> 100,4020,3.02 µM,5.61,5.15,3720,5.11,12.8,2500,6.75,12600
Cc1ccccc1NC(=O)CC(=O)n1nc(-c2ccccc2)c(N=Nc2ccc([N+](=O)[O-])cc2)c1-c1ccccc1,31.5 µM,40.4 µM,96.9 µM,58.4 µM,48.9,67.1 µM,56.4 µM,60.5 µM,57.7,> 100,,,,,,,,,,
CC1=C(C(=O)NCc2ccccc2)C(c2ccccc2O)C(C(=O)NCc2ccccc2)=C(C)N1,28.5 µM,44.3 µM,35.8 µM,30.8 µM,88.9,33.7 µM,> 31.6 µM,62.2 µM,64.9,82.9,,,,,,,,,,
COC(=O)CCc1c(/C=C2\N=C(c3ccc[nH]3)C=C2OC)[nH]c(C)c1C(=O)OCc1ccccc1,1.07 µM,1.59 µM,2.3 µM,4.75 µM,3.39,1.3 µM,5.25 µM,2.42 µM,12.6,> 58,122,0.272 µM,0.503,0.532,252,0.159,1.16,446,1.67,93.3
CC[C@@](C)(NC(=O)[C@H](C)NC(=O)CCNC(=O)C(C)(C)NC(=O)[C@H](C)NC(=O)[C@@H]1CCCN1C(=O)[C@@](C)(CC)NC(=O)[C@H](Cc1ccccc1)NC(=O)C1CCCN1C(=O)C(C)(C)NC(=O)C1CCCN1C(=O)C(C)(C)NC(C)=O)C(=O)NCCC(=O)N[C@@H](CC(C)C)C(=O)NC(C)(C)C(=O)NCCC(=O)N[C@@H](CC(C)C)C(=O)NC(C)(C)C(=O)NC(C)(C)C(=O)N[C@@H](CC(C)C)C(=O)NCCC(=O)NCO (some centres not stated) (Ac-[Aib][ξP][Aib][ξP]F[dIva]PA[Aib][βAla]A[dIva][βAla]L[Aib][βAla]L[Aib][Aib]L[βAla]-X5),0.431 µM,0.448 µM,0.431 µM,0.342 µM,0.332,0.414 µM,0.21 µM,0.65 µM,0.266,0.577,218,0.231 µM,0.187,0.101,79.1,0.203,0.0579,318,0.0725,224
NS(=O)(=O)c1ccc(N=Nc2c(=O)[nH]c3ccc4[nH]cccc4c23)cc1,> 25 µM,> 25 µM,1.64 µM,3.06 µM,> 25,> 25 µM,6.98 µM,1.53 µM,> 25,> 25,151,4.28 µM,0.518,0.317,721,0.577,0.828,557,1.25,202
Nc1ncnc2c1ncn2C1OC(C(=O)OCCO)C(O)C1O (configuration not stated),> 100 µM,> 100 µM,> 100 µM,> 100 µM,> 100,> 100 µM,> 100 µM,> 100 µM,> 100,> 100,,,,,,,,,,
CC(=O)Nc1ccccc1S(=O)c1ccccc1 (configuration not stated),> 100 µM,> 100 µM,> 100 µM,> 100 µM,> 100,> 100 µM,> 100 µM,> 100 µM,> 100,> 100,,,,,,,,,,
O=C1C=C(OCC=C(Cl)Cl)C(=O)c2ccccc21,7.71 µM,> 100 µM,23.9 µM,67.5 µM,> 23,> 100 µM,11 µM,,> 100,> 19.7,2520,23.3 µM,4.91,18.7,1010,51.9,2.15,1390,> 100,3030
N#CC12CC3(CCC1CCC1(C2)OCCO1)OCCO3 (configuration not stated),> 100 µM,> 100 µM,> 100 µM,> 100 µM,> 100,> 100 µM,> 100 µM,> 100 µM,> 100,> 100,,,,,,,,,,
CC1CC2(C)CC(=O)C1C1C(=O)N(CCN3CCOCC3)C(=O)C12 (configuration not stated),> 100 µM,> 100 µM,> 100 µM,> 100 µM,> 100,> 100 µM,> 100 µM,> 100 µM,> 100,> 100,> 100000,> 100 µM,> 100,> 100,> 100000,> 100,> 100,> 100000,> 100,> 100000
